From patent publication US20240116985A1, “STAPLED PEPTIDES AND METHODS THEREOF” (priority 2020, published 2024)

Experiments:
[1] = target: T1, full-length beta-Catenin (Uniprot ID P35222) (Homo sapiens, UniProt P35222); assay: Fluorescence polarization IC50 (beta-catenin / 5FAM-TCF4 10-53 competition); type: binding; settings: fluorescence polarization; read-out: beta-Catenin FP IC50
T1 construct: 10 nM full-length beta-Catenin (Uniprot ID P35222)
T1 sequence (P35222 1-781): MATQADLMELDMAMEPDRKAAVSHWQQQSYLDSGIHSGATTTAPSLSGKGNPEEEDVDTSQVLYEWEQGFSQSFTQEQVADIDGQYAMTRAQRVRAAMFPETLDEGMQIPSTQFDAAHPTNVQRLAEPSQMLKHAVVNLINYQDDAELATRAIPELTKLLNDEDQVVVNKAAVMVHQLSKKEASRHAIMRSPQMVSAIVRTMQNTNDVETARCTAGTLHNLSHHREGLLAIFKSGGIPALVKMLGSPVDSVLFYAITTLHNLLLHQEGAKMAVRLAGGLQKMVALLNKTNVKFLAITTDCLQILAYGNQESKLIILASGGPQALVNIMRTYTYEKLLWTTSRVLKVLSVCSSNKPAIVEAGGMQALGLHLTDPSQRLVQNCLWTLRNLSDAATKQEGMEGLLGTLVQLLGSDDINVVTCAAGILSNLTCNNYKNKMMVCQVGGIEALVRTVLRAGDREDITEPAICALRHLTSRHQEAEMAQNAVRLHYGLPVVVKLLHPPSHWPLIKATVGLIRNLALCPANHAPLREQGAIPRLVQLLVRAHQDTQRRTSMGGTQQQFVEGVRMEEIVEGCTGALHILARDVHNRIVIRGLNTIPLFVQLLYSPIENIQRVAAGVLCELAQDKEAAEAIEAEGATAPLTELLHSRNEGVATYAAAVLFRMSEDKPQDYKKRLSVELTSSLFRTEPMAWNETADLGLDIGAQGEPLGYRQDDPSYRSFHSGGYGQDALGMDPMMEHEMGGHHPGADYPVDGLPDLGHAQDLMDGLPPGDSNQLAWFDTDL

[2] = target: T2, beta-catenin/TCF4 engagement (Homo sapiens, UniProt P35222); assay: Nano-BRET target engagement assay (B-cat-Halo & TCF4-Luc in HEK293 cells); type: cell-based; settings: absolute IC50; read-out: NanoBRET Abs IC50
T2 construct: expressed in transfected cells; host or cells: HEK293
T2 sequence (P35222 1-781): T1 sequence (P35222 1-781)

Structure (SMILES) | IC50 [1] [nM] | IC50 [2] [nM]
CC(=O)N1CCC[C@]12CC=CCCCC1(CCCC=CCCCOC(=O)N3CC[C@@](C(=O)N[C@@H](Cc4ccsc4)C(=O)N[C@@H](Cc4csc5ccccc45)C(=O)N[C@@H](CCC(N)=O)C(N)=O)(C3)NC(=O)[C@H](CC(C)C)NC(=O)[C@H](Cc3ccccc3)NC(=O)[C@H](C)NC(=O)[C@H](C)NC(=O)[C@H](Cc3c[nH]cn3)NC(=O)[C@H](CC(=O)O)NC1=O)NC(=O)[C@H](CC(C)(C)C)NC(=O)[C@H](CC(=O)O)NC2=O (stereo partly drawn) [I-1796, Ac-PL3-Asp-Npg-B5-Asp-His-Ala-Ala-Phe-Leu-PyrS2-3Thi-BztA-Gln-NH2] | 22 | > 20000
CC(=O)N1CCC[C@]12CC=CCCCC1(CCCC=CCCCOC(=O)N3CC[C@@](C(=O)N[C@@H](Cc4ccsc4)C(=O)N[C@@H](Cc4csc5ccccc45)C(=O)N[C@@H](CCC(=O)N4CCC(N5CCCCC5)CC4)C(N)=O)(C3)NC(=O)[C@H](CC(C)C)NC(=O)[C@H](Cc3ccccc3)NC(=O)[C@H](C)NC(=O)[C@H](C)NC(=O)[C@H](CN(CC(=O)O)CC(F)(F)F)NC(=O)[C@H](CC(=O)O)NC1=O)NC(=O)[C@H](CC(C)(C)C)NC(=O)[C@H](CC(=O)O)NC2=O (stereo partly drawn) [I-1797, Ac-PL3-Asp-Npg-B5-Asp-TfeGA-Ala-Ala-Phe-Leu-PyrS2-3Thi-BztA-[4Pippip]GlnR-NH2] | 10 | 22500
CC(=O)N1CCC[C@]12CC=CCCCC1(CCCC=CCCCOC(=O)N3CC[C@@](C(=O)N[C@@H](Cc4ccsc4)C(=O)N[C@@H](Cc4csc5ccccc45)C(=O)N[C@@H](CCC(=O)N4CCN(CCCN(C)C)CC4)C(N)=O)(C3)NC(=O)[C@H](CC(C)C)NC(=O)[C@H](Cc3ccccc3)NC(=O)[C@H](C)NC(=O)[C@H](C)NC(=O)[C@H](CN(CC(=O)O)CC(F)(F)F)NC(=O)[C@H](CC(=O)O)NC1=O)NC(=O)[C@H](CC(C)(C)C)NC(=O)[C@H](CC(=O)O)NC2=O (stereo partly drawn) [I-1799, Ac-PL3-Asp-Npg-B5-Asp-TfeGA-Ala-Ala-Phe-Leu-PyrS2-3Thi-BztA-[Me2NPrPip]GlnR-NH2] | 8 | 25800
CC(=O)N1CCC[C@]12CC=CCCCC1(CCCC=CCCCOC(=O)N3CC[C@@](C(=O)N[C@@H](Cc4ccsc4)C(=O)N[C@@H](Cc4csc5ccccc45)C(=O)N[C@@H](CCC(=O)N4CCN(CCCN(C)C)CC4)C(N)=O)(C3)NC(=O)[C@H](CC(C)C)NC(=O)[C@H](Cc3ccccc3)NC(=O)[C@H](C)NC(=O)[C@H](C)NC(=O)[C@H](CN(CC(=O)O)CC(F)(F)F)NC(=O)[C@H](CC(=O)O)NC1=O)NC(=O)[C@H](CC(C)(C)C)NC(=O)[C@H](CC(=O)O)NC2=O (stereo partly drawn) [I-1800, Ac-PL3-Asp-Npg-B5-Asp-TfeGA-Ala-Ala-Phe-Leu-PyrS2-3Thi-BztA-[Me2NPrPip]GlnR-NH2] | 13 | 25200
CC(=O)N1CCC[C@]12CC=CCCCC1(CCCC=CCCCOC(=O)N3CC[C@@](C(=O)N[C@@H](Cc4ccsc4)C(=O)N[C@@H](Cc4csc5ccccc45)C(=O)N[C@@H](CCC(=O)N4CCC(N5CCN(C)CC5)CC4)C(N)=O)(C3)NC(=O)[C@H](CC(C)C)NC(=O)[C@H](Cc3ccccc3)NC(=O)[C@H](C)NC(=O)[C@H](C)NC(=O)[C@H](CN(CC(=O)O)CC(F)(F)F)NC(=O)[C@H](CC(=O)O)NC1=O)NC(=O)[C@H](CC(C)(C)C)NC(=O)[C@H](CC(=O)O)NC2=O (stereo partly drawn) [I-1801, Ac-PL3-Asp-Npg-B5-Asp-TfeGA-Ala-Ala-Phe-Leu-PyrS2-3Thi-BztA-[4MePpzPip]GlnR-NH2] | 7 | 17500
CC(=O)N1CCC[C@]12CC=CCCCC1(CCCC=CCCCOC(=O)N3CC[C@@](C(=O)N[C@@H](Cc4ccsc4)C(=O)N[C@@H](Cc4csc5ccccc45)C(=O)N[C@@H](CCC(=O)N4CCC(N5CCN(C)CC5)CC4)C(N)=O)(C3)NC(=O)[C@H](CC(C)C)NC(=O)[C@H](Cc3ccccc3)NC(=O)[C@H](C)NC(=O)[C@H](C)NC(=O)[C@H](CN(CC(=O)O)CC(F)(F)F)NC(=O)[C@H](CC(=O)O)NC1=O)NC(=O)[C@H](CC(C)(C)C)NC(=O)[C@H](CC(=O)O)NC2=O (stereo partly drawn) [I-1802, Ac-PL3-Asp-Npg-B5-Asp-TfeGA-Ala-Ala-Phe-Leu-PyrS2-3Thi-BztA-[4MePpzPip]GlnR-NH2] | 11 | 25200
CC(=O)N1CCC[C@]12CC=CCCCC1(CCCC=CCCCOC(=O)N3CC[C@@](C(=O)N[C@@H](Cc4ccsc4)C(=O)N[C@@H](Cc4csc5ccccc45)C(=O)N[C@@H](CCC(=O)N4CCN(CC(F)(F)F)CC4)C(N)=O)(C3)NC(=O)[C@H](CC(C)C)NC(=O)[C@H](Cc3ccccc3)NC(=O)[C@H](C)NC(=O)[C@H](C)NC(=O)[C@H](CN(CC(=O)O)CC(F)(F)F)NC(=O)[C@H](CC(=O)O)NC1=O)NC(=O)[C@H](CC(C)(C)C)NC(=O)[C@H](CC(=O)O)NC2=O (stereo partly drawn) [I-1803, Ac-PL3-Asp-Npg-B5-Asp-TfeGA-Ala-Ala-Phe-Leu-PyrS2-3Thi-BztA-[TfePpz]GlnR-NH2] | 20 | 7400
CC(=O)N1CCC[C@]12CC=CCCCC1(CCCC=CCCCOC(=O)N3CC[C@@](C(=O)N[C@@H](Cc4ccsc4)C(=O)N[C@@H](Cc4csc5ccccc45)C(=O)N[C@@H](CCC(=O)N4CC[C@@H](N(C)C)C4)C(N)=O)(C3)NC(=O)[C@H](CC(C)C)NC(=O)[C@H](Cc3ccccc3)NC(=O)[C@H](C)NC(=O)[C@H](C)NC(=O)[C@H](CN(CC(=O)O)CC(F)(F)F)NC(=O)[C@H](CC(=O)O)NC1=O)NC(=O)[C@H](CC(C)(C)C)NC(=O)[C@H](CC(=O)O)NC2=O (stereo partly drawn) [I-1804, Ac-PL3-Asp-Npg-B5-Asp-TfeGA-Ala-Ala-Phe-Leu-PyrS2-3Thi-BztA-[RDMAPyr]GlnR-NH2] | 8 | 9400
CC(=O)N1CCC[C@]12CC=CCCCC1(CCCC=CCCCOC(=O)N3CC[C@@](C(=O)N[C@@H](Cc4ccsc4)C(=O)N[C@@H](Cc4csc5ccccc45)C(=O)N[C@@H](CCC(=O)N4CC[C@@H](N(C)C)C4)C(N)=O)(C3)NC(=O)[C@H](CC(C)C)NC(=O)[C@H](Cc3ccccc3)NC(=O)[C@H](C)NC(=O)[C@H](C)NC(=O)[C@H](CN(CC(=O)O)CC(F)(F)F)NC(=O)[C@H](CC(=O)O)NC1=O)NC(=O)[C@H](CC(C)(C)C)NC(=O)[C@H](CC(=O)O)NC2=O (stereo partly drawn) [I-1805, Ac-PL3-Asp-Npg-B5-Asp-TfeGA-Ala-Ala-Phe-Leu-PyrS2-3Thi-BztA-[RDMAPyr]GlnR-NH2] | 6 | 9300

Further lines, results first:

IC50 [1] [nM] | IC50 [2] [nM] | Structure (SMILES)
90 | 14000 | CC(=O)N1CCC[C@]12CCCCCCC1(CCCCCCCCOC(=O)N3CC[C@@](C(=O)N[C@@H](Cc4ccsc4)C(=O)N[C@@H](Cc4csc5ccccc45)C(=O)N[C@@H](CCC(N)=O)C(N)=O)(C3)NC(=O)[C@H](CC(C)C)NC(=O)[C@H](Cc3ccccc3)NC(=O)[C@H](C)NC(=O)[C@H](C)NC(=O)[C@H](CC(=O)O)NC(=O)[C@H](CC(=O)O)NC1=O)NC(=O)[C@H](CC(C)(C)C)NC(=O)[C@H](CC(=O)O)NC2=O (stereo partly drawn) [I-1808, Ac-PL3-Asp-Npg-B5-Asp-Asp-Ala-Ala-Phe-Leu-PyrS2-3Thi-BztA-Gln-NH2]
26 | > 20000 | CC(=O)N1CCC[C@]12CC=CCCCC1(CCCC=CCCOC(=O)N3CC[C@@](C(=O)N[C@@H](Cc4ccsc4)C(=O)N[C@@H](Cc4csc5ccccc45)C(=O)N[C@@H](CCC(N)=O)C(N)=O)(C3)NC(=O)[C@H](CC(N)=O)NC(=O)[C@H](Cc3ccccc3)NC(=O)[C@H](C)NC(=O)[C@H](C)NC(=O)[C@H](CC(=O)O)NC(=O)[C@H](CC(=O)O)NC1=O)NC(=O)[C@H](CC(C)(C)C)NC(=O)[C@H](CC(=O)O)NC2=O (stereo partly drawn) [I-1813, Ac-PL3-Asp-Npg-B5-Asp-Asp-Ala-Ala-Phe-Asn-PyrS1-3Thi-BztA-Gln-NH2]
46 | > 20000 | CC(=O)N1CCC[C@]12CC=CCCCC1(CCCC=CCCOC(=O)N3CC[C@@](C(=O)N[C@@H](Cc4ccsc4)C(=O)N[C@@H](Cc4csc5ccccc45)C(=O)N[C@@H](CCC(N)=O)C(N)=O)(C3)NC(=O)[C@H](CC(C)C)NC(=O)[C@H](Cc3ccccc3)NC(=O)[C@H](C)NC(=O)[C@H](C)NC(=O)[C@H](CC(=O)O)NC(=O)[C@H](CC(=O)O)NC1=O)NC(=O)[C@H](CC(C)(C)C)NC(=O)[C@H](CC(=O)O)NC2=O (stereo partly drawn) [I-1815, Ac-PL3-Asp-Npg-B5-Asp-Asp-Ala-Ala-Phe-Leu-PyrS1-3Thi-BztA-Gln-NH2]
236 | > 20000 | CC(=O)N1CCC[C@]12CC=CCCCC1(CCCC=CCOC(=O)N3CC[C@@](C(=O)N[C@@H](Cc4ccsc4)C(=O)N[C@@H](Cc4csc5ccccc45)C(=O)N[C@@H](CCC(N)=O)C(N)=O)(C3)NC(=O)[C@H](CC(C)C)NC(=O)[C@H](Cc3ccccc3)NC(=O)[C@H](C)NC(=O)[C@H](C)NC(=O)[C@H](CC(=O)O)NC(=O)[C@H](CC(=O)O)NC1=O)NC(=O)[C@H](CC(C)(C)C)NC(=O)[C@H](CC(=O)O)NC2=O (stereo partly drawn) [I-1818, Ac-PL3-Asp-Npg-B5-Asp-Asp-Ala-Ala-Phe-Leu-PyrS-3Thi-BztA-Gln-NH2]
